These are literature values, as cited in US10376473B2, “Transdermal adhesive compositions, devices, and methods” (priority 2010, dated 2019).

Like-named read-outs stand apart in the source and are kept apart here.

For the series the following is noted: after 2 months at 60° C.

For the molecule `CCN(C)C(=O)Oc1cccc([C@H](C)N(C)C)c1` [(S)—N-ethyl-3-[(1-dimethylamino)ethyl]-N-methylphenyl carbamate], the degradation products is reported as 1.3% (composition with 0.1% tocopherol (antioxidant)) and 4.46% (composition without the antioxidant).
